Results as given in patent US8748417B2, “Amino-pyrrolidine-azetidine diamides as monoacylglycerol lipase inhibitors” (Janssen Pharmaceutica, NV, priority 2010, dated 2014).

Tests used:
[1] = target: T1, purified wild type MGL (wt-MGLL 6H-11-313) (Homo sapiens, UniProt Q99685); experiment: MGL enzyme activity assay (4MU-B cleavage), wild type MGL; type: biochemical; conditions: wild type MGL 5 nM, 4MU-B 10 μM, 37° C.; read-out: MGL wild type inh IC50
T1 construct: purified wild type MGL (wt-MGLL 6H-11-313)
T1 sequence (Q99685 1-303): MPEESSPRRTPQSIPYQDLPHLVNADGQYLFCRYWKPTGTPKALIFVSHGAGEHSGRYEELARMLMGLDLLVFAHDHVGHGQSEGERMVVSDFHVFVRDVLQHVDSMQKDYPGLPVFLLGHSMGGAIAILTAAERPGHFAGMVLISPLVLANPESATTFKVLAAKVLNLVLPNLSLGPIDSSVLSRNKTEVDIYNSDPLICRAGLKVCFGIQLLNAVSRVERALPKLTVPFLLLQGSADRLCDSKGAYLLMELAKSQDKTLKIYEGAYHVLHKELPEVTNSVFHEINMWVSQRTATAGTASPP
Method in brief: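 Enzyme in 20 mM PIPES pH 7.0, 150 mM NaCl, 0.001% Tween 20 with 4MU-B at 10 μM final and MGL at 5 nM final; compounds 17 to 0.0003 μM final, enzyme added last. Fluorescence (ex 335/em 440 nm) followed at 37° C for 5 min; IC50 from fit of fractional activity versus inhibitor concentration.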

[2] = system: MGL (rat brain homogenate); experiment: 2-AG accumulation assay in rat brain homogenate; type: biochemical; conditions: compound 1 μM, percent of vehicle 2-AG accumulation
Procedure: After a 15-min incubation time at 37° C., CaCl2 (final concentration=10 mM) was added and then incubated for 15 min at 37° C. in a total volume of 5 mL. The reactions were stopped with 6 mL organic solvent extraction solution of 2:1 chloroform/methanol. Accumulated 2-AG in the organic phase was measured by a HPLC/MS method, according to the following equation: percent vehicle=(2-AG accumulation in the presence of compound/2-AG accumulation in vehicle)×100.

**Q.** What does the source list for `O=C(c1nccs1)N1CC[C@H](NC2CN(C(=O)c3sc4cc(-c5ccccc5)ccc4c3Cl)C2)C1` [Cpd 146, (3S)-N-{1-[(3-Chloro-6-phenyl-1-benzothiophen-2-yl)carbonyl]azetidin-3-yl}-1-(1,3-thiazol-2-ylcarbonyl)pyrrolidin-3-amine]?
**A.** IC50 [1]: < 5 nM; Rat Brain 2AG % VehCntrl (%) @1 μM [2]: 680%

**Q.** How did the IC50 [1] turn out when `O=C(c1cscn1)N1CC[C@H](NC2CN(C(=O)c3sc4cc(-c5ccccc5)ccc4c3Cl)C2)C1` [Cpd 147, (3S)-N-{1-[(3-Chloro-6-phenyl-1-benzothiophen-2-yl)carbonyl]azetidin-3-yl}-1-(1,3-thiazol-4-ylcarbonyl)pyrrolidin-3-amine] was run?
**A.** < 5 nM

**Q.** And the “Rat Brain 2AG % VehCntrl (%) @1 μM” value [2]?
**A.** 506%

**Q.** With `O=C(c1nccs1)N1CC[C@H](NC2CN(C(=O)c3sc4cc(-c5cccc(C(F)(F)F)c5)ccc4c3Cl)C2)C1` [Cpd 148, (3S)-N-[1-({3-Chloro-6-[3-(trifluoromethyl)phenyl]-1-benzothiophen-2-yl}carbonyl)azetidin-3-yl]-1-(1,3-thiazol-2-ylcarbonyl)pyrrolidin-3-amine] as the compound, how does the IC50 [1] read?
**A.** < 5 nM

**Q.** What about the “Rat Brain 2AG % VehCntrl (%) @1 μM” value [2] of the same compound?
**A.** 942%

**Q.** `O=C(c1cscn1)N1CC[C@H](NC2CN(C(=O)c3sc4cc(-c5cccc(C(F)(F)F)c5)ccc4c3Cl)C2)C1` [Cpd 149, (3S)-N-[1-({3-Chloro-6-[3-(trifluoromethyl)phenyl]-1-benzothiophen-2-yl}carbonyl)azetidin-3-yl]-1-(1,3-thiazol-4-ylcarbonyl)pyrrolidin-3-amine] was tested. Which IC50 [1] did it give?
**A.** < 5 nM

**Q.** What about the “Rat Brain 2AG % VehCntrl (%) @1 μM” value [2] of the same compound?
**A.** 811%

**Q.** How did the IC50 [1] turn out when `O=C(c1nccs1)N1CC[C@H](NC2CN(C(=O)c3sc4cc(-c5ccc(C(F)(F)F)cc5)ccc4c3Cl)C2)C1` [Cpd 150, (3S)-N-[1-({3-Chloro-6-[4-(trifluoromethyl)phenyl]-1-benzothiophen-2-yl}carbonyl)azetidin-3-yl]-1-(1,3-thiazol-2-ylcarbonyl)pyrrolidin-3-amine] was run?
**A.** < 5 nM

**Q.** And the “Rat Brain 2AG % VehCntrl (%) @1 μM” value [2]?
**A.** 759%

**Q.** Which IC50 [1] does the source give for `O=C(c1cscn1)N1CC[C@H](NC2CN(C(=O)c3sc4cc(-c5ccc(C(F)(F)F)cc5)ccc4c3Cl)C2)C1` [Cpd 151, (3S)-N-[1-({3-Chloro-6-[4-(trifluoromethyl)phenyl]-1-benzothiophen-2-yl}carbonyl)azetidin-3-yl]-1-(1,3-thiazol-4-ylcarbonyl)pyrrolidin-3-amine] here?
**A.** < 5 nM

**Q.** And the “Rat Brain 2AG % VehCntrl (%) @1 μM” value [2]?
**A.** 495%

**Q.** For `O=C(c1ccccc1)N1CC[C@H](NC2CN(C(=O)c3ccc(-c4cccc(C(F)(F)F)c4)cc3F)C2)C1` [Cpd 152, (3S)-N-(1-{[3-Fluoro-3′-(trifluoromethyl)biphenyl-4-yl]carbonyl}azetidin-3-yl)-1-(phenylcarbonyl)pyrrolidin-3-amine], which IC50 [1] is on record?
**A.** 35.2 nM

**Q.** And the “Rat Brain 2AG % VehCntrl (%) @1 μM” value [2]?
**A.** 404%

**Q.** What does the source list for `O=C(c1ccc2c(ccn2-c2ccc(C(F)(F)F)cc2)c1)N1CC(N[C@H]2CCN(C(=O)c3ccccc3)C2)C1` [Cpd 154, (3S)-1-(Phenylcarbonyl)-N-[1-({1-[4-(trifluoromethyl)phenyl]-1H-indol-5-yl}carbonyl)azetidin-3-yl]pyrrolidin-3-amine]?
**A.** IC50 [1]: 13.4 nM; Rat Brain 2AG % VehCntrl (%) @1 μM [2]: 582%

**Q.** How did the IC50 [1] turn out when `O=C(c1ccc2c(ccn2-c2ccc(C(F)(F)F)cc2)c1)N1CC(N[C@H]2CCN(C(=O)c3cscn3)C2)C1` [Cpd 158, (3S)-1-(1,3-Thiazol-4-ylcarbonyl)-N-[1-({1-[4-(trifluoromethyl)phenyl]-1H-indol-5-yl}carbonyl)azetidin-3-yl]pyrrolidin-3-amine] was run?
**A.** 16 nM

**Q.** And the “Rat Brain 2AG % VehCntrl (%) @1 μM” value [2]?
**A.** 415%

**Q.** How did the IC50 [1] turn out when `O=C(c1ccc2c(ccn2-c2ccc(F)cc2)c1)N1CC(N[C@H]2CCN(C(=O)c3cscn3)C2)C1` [Cpd 160, (3S)-N-(1-{[1-(4-Fluorophenyl)-1H-indol-5-yl]carbonyl}azetidin-3-yl)-1-(1,3-thiazol-4-ylcarbonyl)pyrrolidin-3-amine] was run?
**A.** 12.4 nM

**Q.** And the “Rat Brain 2AG % VehCntrl (%) @1 μM” value [2]?
**A.** 338%

**Q.** How did the IC50 [1] turn out when `O=C(c1ccc2c(ccn2-c2ccc(F)cc2)c1)N1CC(N[C@H]2CCN(C(=O)c3ccccc3)C2)C1` [Cpd 161, (3S)-N-(1-{[1-(4-Fluorophenyl)-1H-indol-5-yl]carbonyl}azetidin-3-yl)-1-(phenylcarbonyl)pyrrolidin-3-amine] was run?
**A.** 55 nM

**Q.** What about the “Rat Brain 2AG % VehCntrl (%) @1 μM” value [2] of the same compound?
**A.** 485%

**Q.** `Cn1cc(-c2ccc(C(F)(F)F)cc2)c2ccc(C(=O)N3CC(N[C@H]4CCN(C(=O)c5nccs5)C4)C3)cc21` [Cpd 163, (3S)-N-[1-({1-Methyl-3-[4-(trifluoromethyl)phenyl]-1H-indol-6-yl}carbonyl)azetidin-3-yl]-1-(1,3-thiazol-2-ylcarbonyl)pyrrolidin-3-amine] was tested. Which IC50 [1] did it give?
**A.** 10.7 nM

**Q.** What about the “Rat Brain 2AG % VehCntrl (%) @1 μM” value [2] of the same compound?
**A.** 274%

**Q.** How did the IC50 [1] turn out when `Cn1cc(-c2cccc(C(F)(F)F)c2)c2ccc(C(=O)N3CC(N[C@H]4CCN(C(=O)c5cscn5)C4)C3)cc21` [Cpd 164, (3S)-N-[1-({1-Methyl-3-[3-(trifluoromethyl)phenyl]-1H-indol-6-yl}carbonyl)azetidin-3-yl]-1-(1,3-thiazol-4-ylcarbonyl)pyrrolidin-3-amine] was run?
**A.** 25.1 nM

**Q.** And the “Rat Brain 2AG % VehCntrl (%) @1 μM” value [2]?
**A.** 458%

**Q.** `Cn1cc(-c2ccc(C(F)(F)F)cc2)c2ccc(C(=O)N3CC(N[C@H]4CCN(C(=O)c5cscn5)C4)C3)cc21` [Cpd 165, (3S)-N-[1-({1-Methyl-3-[4-(trifluoromethyl)phenyl]-1H-indol-6-yl}carbonyl)azetidin-3-yl]-1-(1,3-thiazol-4-ylcarbonyl)pyrrolidin-3-amine] was tested. Which IC50 [1] did it give?
**A.** 44.5 nM

**Q.** And the “Rat Brain 2AG % VehCntrl (%) @1 μM” value [2]?
**A.** 228%

**Q.** `Cn1cc(-c2cccc(C(F)(F)F)c2)c2ccc(C(=O)N3CC(N[C@H]4CCN(C(=O)c5ccccc5)C4)C3)cc21` [Cpd 166, (3S)-N-[1-({1-Methyl-3-[3-(trifluoromethyl)phenyl]-1H-indol-6-yl}carbonyl)azetidin-3-yl]-1-(phenylcarbonyl)pyrrolidin-3-amine] was tested. Which IC50 [1] did it give?
**A.** 49.8 nM

**Q.** What about the “Rat Brain 2AG % VehCntrl (%) @1 μM” value [2] of the same compound?
**A.** 322%

**Q.** What does the source list for `O=C(c1nccs1)N1CC[C@H](NC2CN(C(=O)c3sc4cc(C(F)(F)F)ccc4c3Cl)C2)C1` [Cpd 167, (3S)-N-(1-{[3-Chloro-6-(trifluoromethyl)-1-benzothiophen-2-yl]carbonyl}azetidin-3-yl)-1-(1,3-thiazol-2-ylcarbonyl)pyrrolidin-3-amine]?
**A.** IC50 [1]: 11 nM; Rat Brain 2AG % VehCntrl (%) @1 μM [2]: 695%

**Q.** With `O=C(c1cscn1)N1CC[C@H](NC2CN(C(=O)c3sc4cc(C(F)(F)F)ccc4c3Cl)C2)C1` [Cpd 168, (3S)-N-(1-{[3-Chloro-6-(trifluoromethyl)-1-benzothiophen-2-yl]carbonyl}azetidin-3-yl)-1-(1,3-thiazol-4-ylcarbonyl)pyrrolidin-3-amine] as the compound, how does the IC50 [1] read?
**A.** 32.2 nM

**Q.** What about the “Rat Brain 2AG % VehCntrl (%) @1 μM” value [2] of the same compound?
**A.** 611%

**Q.** What does the source list for `Cn1cc(-c2ccccc2)c2ccc(C(=O)N3CC(N[C@H]4CCN(C(=O)c5nccs5)C4)C3)cc21` [Cpd 169, (3S)-N-{1-[(1-Methyl-3-phenyl-1H-indol-6-yl)carbonyl]azetidin-3-yl}-1-(1,3-thiazol-2-ylcarbonyl)pyrrolidin-3-amine]?
**A.** IC50 [1]: 13.9 nM; Rat Brain 2AG % VehCntrl (%) @1 μM [2]: 482%

**Q.** How did the IC50 [1] turn out when `O=C(c1nccs1)N1CC[C@H](NC2CN(C(=O)c3sc4ccc(-c5ccccc5)cc4c3F)C2)C1` [Cpd 171, (3S)-N-{1-[(3-Fluoro-5-phenyl-1-benzothiophen-2-yl)carbonyl]azetidin-3-yl}-1-(1,3-thiazol-2-ylcarbonyl)pyrrolidin-3-amine] was run?
**A.** < 5 nM

**Q.** What about the “Rat Brain 2AG % VehCntrl (%) @1 μM” value [2] of the same compound?
**A.** 614%

**Q.** With `O=C(c1cscn1)N1CC[C@H](NC2CN(C(=O)c3sc4ccc(-c5ccccc5)cc4c3F)C2)C1` [Cpd 172, (3S)-N-{1-[(3-Fluoro-5-phenyl-1-benzothiophen-2-yl)carbonyl]azetidin-3-yl}-1-(1,3-thiazol-4-ylcarbonyl)pyrrolidin-3-amine] as the compound, how does the IC50 [1] read?
**A.** < 5 nM

**Q.** What about the “Rat Brain 2AG % VehCntrl (%) @1 μM” value [2] of the same compound?
**A.** 532%

**Q.** Which results are given for `O=C(c1ccccc1)N1CC[C@H](NC2CN(C(=O)c3sc4ccc(-c5ccccc5)cc4c3F)C2)C1` [Cpd 173, (3S)-N-{1-[(3-Fluoro-5-phenyl-1-benzothiophen-2-yl)carbonyl]azetidin-3-yl}-1-(phenylcarbonyl)pyrrolidin-3-amine]?
**A.** IC50 [1]: < 5 nM; Rat Brain 2AG % VehCntrl (%) @1 μM [2]: 628%

**Q.** How did the IC50 [1] turn out when `O=C(c1nccs1)N1CC[C@H](NC2CN(C(=O)c3sc4ccc(-c5ccc(C(F)(F)F)cc5)cc4c3F)C2)C1` [Cpd 174, (3S)-N-[1-({3-Fluoro-5-[4-(trifluoromethyl)phenyl]-1-benzothiophen-2-yl}carbonyl)azetidin-3-yl]-1-(1,3-thiazol-2-ylcarbonyl)pyrrolidin-3-amine] was run?
**A.** 10 nM

**Q.** What about the “Rat Brain 2AG % VehCntrl (%) @1 μM” value [2] of the same compound?
**A.** 791%

**Q.** With `O=C(c1cscn1)N1CC[C@H](NC2CN(C(=O)c3sc4ccc(-c5ccc(C(F)(F)F)cc5)cc4c3F)C2)C1` [Cpd 175, (3S)-N-[1-({3-Fluoro-5-[4-(trifluoromethyl)phenyl]-1-benzothiophen-2-yl}carbonyl)azetidin-3-yl]-1-(1,3-thiazol-4-ylcarbonyl)pyrrolidin-3-amine] as the compound, how does the IC50 [1] read?
**A.** < 5 nM

**Q.** And the “Rat Brain 2AG % VehCntrl (%) @1 μM” value [2]?
**A.** 734%
